Measurements taken from publication PMC9004391, “Cytochrome P450 Monooxygenase/Cytochrome P450 Reductase Bi-Enzymatic System Isolated From Ilex asprella for Regio-Specific Oxidation of Pentacyclic Triterpenoids” (Frontiers in Plant Science, 2022).
Blank lines part the entries; values can stand above or below the compound they belong to.

Columns and labels:
IaCPR = test system: T1, IaCPR; test: reductase activity by absorbance, microplate reader; assay type: biochemical, Ilex asprella; conditions: electron acceptor for this constant, pH and temperature not printed in main text
T1 construct: full ORF 2,133 bp, 710 aa; pET32a (vector fusion tag), E. coli Transetta (DE3), Ni-NTA

IaAO5 = target: T2, IaAO5 (Ilex asprella, UniProt A0A976SHZ3); test: yeast metabolite analysis by GC-MS; assay type: cell-based; conditions: S. cerevisiae WAT11tfA co-expressing IaAS2; C-24 oxidation to α-boswellic acid; not seen in strain WAT11tfAX
T2 construct: 515 aa ORF (1,545 bp); pESC-TRP in S. cerevisiae WAT11tfA co-expressing IaAS2
T2 sequence (A0A976SHZ3 1-514): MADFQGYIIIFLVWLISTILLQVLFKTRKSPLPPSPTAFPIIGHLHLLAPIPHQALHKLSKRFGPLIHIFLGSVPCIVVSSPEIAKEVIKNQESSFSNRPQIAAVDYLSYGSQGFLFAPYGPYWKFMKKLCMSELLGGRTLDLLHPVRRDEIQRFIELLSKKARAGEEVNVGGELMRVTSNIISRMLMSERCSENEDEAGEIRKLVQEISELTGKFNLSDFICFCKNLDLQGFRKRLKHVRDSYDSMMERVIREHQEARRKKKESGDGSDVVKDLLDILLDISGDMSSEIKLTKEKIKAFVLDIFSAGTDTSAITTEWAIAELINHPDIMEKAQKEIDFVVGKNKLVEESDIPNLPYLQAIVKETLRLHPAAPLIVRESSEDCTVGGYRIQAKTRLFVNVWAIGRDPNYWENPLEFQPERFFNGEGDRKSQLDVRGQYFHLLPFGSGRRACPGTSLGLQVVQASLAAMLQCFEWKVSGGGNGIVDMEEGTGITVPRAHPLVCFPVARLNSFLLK

IaAO4 = target: T3, IaAO4 (Ilex asprella, UniProt A0A976SHZ5); test: yeast metabolite analysis by GC-MS; assay type: cell-based; conditions: S. cerevisiae WAT11tfAX co-expressing IaAO1
T3 construct: 513 aa ORF (1,539 bp); pESC-URA in S. cerevisiae WAT11tfAX co-expressing IaAO1
T3 sequence (A0A976SHZ5 1-512): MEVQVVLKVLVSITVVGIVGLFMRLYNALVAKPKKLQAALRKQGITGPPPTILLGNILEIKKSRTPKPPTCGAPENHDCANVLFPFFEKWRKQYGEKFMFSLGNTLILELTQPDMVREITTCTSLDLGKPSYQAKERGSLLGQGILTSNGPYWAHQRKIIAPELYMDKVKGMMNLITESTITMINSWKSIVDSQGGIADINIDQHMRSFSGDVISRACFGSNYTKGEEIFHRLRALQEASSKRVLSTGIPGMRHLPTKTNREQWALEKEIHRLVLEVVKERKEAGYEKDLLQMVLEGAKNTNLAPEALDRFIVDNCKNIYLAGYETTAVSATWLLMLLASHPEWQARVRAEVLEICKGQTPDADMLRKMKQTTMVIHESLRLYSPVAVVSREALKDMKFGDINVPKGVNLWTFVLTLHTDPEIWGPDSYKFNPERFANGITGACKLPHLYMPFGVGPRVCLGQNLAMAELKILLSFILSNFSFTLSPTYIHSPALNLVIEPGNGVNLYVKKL

Km (IaCPR): 7.69 µM
Compound: NC(=O)C1=CN([C@@H]2O[C@H](COP(=O)(O)OP(=O)(O)OC[C@H]3O[C@@H](n4cnc5c(N)ncnc54)[C@H](OP(=O)(O)O)[C@@H]3O)[C@@H](O)[C@H]2O)C=CC1 [NADPH]

Compound: CC1(C)CC[C@]2(C)CC[C@]3(C)C(=CC[C@@H]4[C@@]5(C)CC[C@H](O)C(C)(C)[C@@H]5CC[C@]43C)[C@@H]2C1 [β-amyrin]
yeast metabolite analysis by GC-MS (IaAO5): catalyzes oxidation at the C-24 position of β-amyrin to yield α-Boswellic acid

Compound: CC1(C)CC[C@]2(C(=O)O)CC[C@]3(C)C(=CC[C@@H]4[C@@]5(C)CC[C@H](O)C(C)(C)[C@@H]5CC[C@]43C)[C@@H]2C1 [oleanolic acid]
yeast metabolite analysis by GC-MS (IaAO4; C-23 oxidation to hederagenin and gypsogenic acid): catalyzing the oxidation of both OA and UA at the C-23 position

Compound: C[C@H]1[C@H](C)CC[C@]2(C(=O)O)CC[C@]3(C)C(=CC[C@@H]4[C@@]5(C)CC[C@H](O)C(C)(C)[C@@H]5CC[C@]43C)[C@H]12 [ursolic acid]
yeast metabolite analysis by GC-MS (IaAO4; C-23 oxidation, products 23-hydroxyl- and 23-carboxyl-ursolic acid tentative): catalyzing the oxidation of both OA and UA at the C-23 position
